Test results: patent publication US12221459B2, “Cancer treatment with (2,2-bishydroxymethyl) methylenecyclopropane nucleotides” (MEDIVIR AB, priority 2018, dated 2025)

Key:
[1] = Structural integrity of triester phosphoroalaninates by LC MS over 22-29 days; format: physicochemical
Description: Instability of Triester Phosphoroalaninates
Intermediate compounds I-19 d2 and I-25 synthesised above are triesterphosphoro-alaninates resembling the prior art compound described in Yan et al, J Med Chem 2005 48 91-99:
The structural integrity of these model compounds was assessed by LC MS over a 22-29 day period, as follows: […]

[2] = tested on: EOL-1 (human); assay: Leukemia cell line activity assay (Cell Counting Kit-8, 5 days), EOL-1; conditions: read-out: EOL.1 CC50; EOL-1 cells, 5 days incubation
Description: (§1) Compounds of the invention were evaluated for activity against the leukemia cell lines THP-1, EOL-1 and MV4-11, using the following assay:
(§2) Test compounds were made up to 10 mM stock solution in DMSO
(§3) Leukemia cells (THP-1, EOL-1 and MV4-11) were grown in a cell culture flask 75 cm^2 with approximately 100 ml complete cell medium. The cells were counted using a Scepter-hand held automated cell counter, using 60 μm sensors (Millipore) and suspended in complete cell medium to 2×10^5 cells. 100 μl of the cell suspension were seeded to all wells (2×10^4 cells/well).
(§4) The compounds were tested in twelve concentrations, 10-fold serial dilutions, 50 μM-5×10^−10 μM.
(§5) 100 μl from a compound dilution plate were transferred to the cell assay plate=200 μl/well total volume and incubated for 5 days, at 37° C., 5% CO2 incubator.
(§6) After 5 days, 10l of KIT-8 was added and the culture was incubated for 3-4 hours, at 37° C., 5% CO2 incubator.
(§7) Plate were read in the spectrophotometer at wavelength 450 nm with a reference filter of 620 nm.
(§8) CC50 values are calculated by plotting the degree of inhibition (compared to the vehicle ctrl) against the logarithm of the compound concentration. Result values in the dilution series are fitted to a 4-parameter sigmoidal dose-response curve described by the expression: F(x)=D+(A−D)/(1+(x/C)^B) where: • A=Minimum • B=Slope. • C=Inflection point. The inflection point is defined as the point on the curve where the curvature changes direction or signs. • D=Maximum • F=fraction inhibition

[3] = tested on: MV4-11 cells, human B-myelomonocytic leukemia; assay: Leukemia cell line activity assay (Cell Counting Kit-8, 5 days), MV4-11; conditions: read-out: MV4-11 CC50; MV4-11 cells, 5 days incubation
Description: as §1, §2, §3, §4, §5, §6, §7, §8

[4] = tested on: THP-1 (human acute monocytic leukemia); assay: Leukemia cell line activity assay (Cell Counting Kit-8, 5 days), THP-1; conditions: read-out: THP-1 CC50; THP-1 cells, 5 days incubation
Description: as §1, §2, §3, §4, §5, §6, §7, §8

Row | Compound | LCMS purity ([1]; Day 0) [%] | LCMS purity ([1]; Day 5) [%] | LCMS purity ([1]; Day 14) [%] | LCMS purity ([1]; Day 22) [%] | LCMS purity ([1]; Day 29) [%] | CC50 [2] [nM] | CC50 [3] [nM] | CC50 [4] [nM]
1 | CC(C)OC(=O)[C@H](C)N[P@](=O)(OC[C@@]1(CO)C/C1=C/n1cnc2c(=O)[nH]c(N)nc21)Oc1ccc(C2(C)CC2)cc1 [Intermediate I-25, (S)-Isopropyl 2-(((S)-(((S,Z)-2-((2-amino-6-oxo-1H-purin-9(6H)-yl)methylene)-1-(hydroxymethyl)cyclopropyl)methoxy)(4-(1-methylcyclopropyl)phenoxy)phosphoryl)amino)propanoate] | 95.56 | 88.14 | 82.67 | 77.76 | 72.84 |  |  | 
2 | CCCC(=O)OCC1(CO[P@@](=O)(N[C@@H](C)C(=O)OCC(CCC)CCC)Oc2ccccc2)C/C1=C/n1ccc(N)nc1=O (single isomer, unassigned) [Example 45-1] |  |  |  |  |  | 59 | 180 | 190
3 | CCC[C@H](C)OC(=O)[C@H](C)N[P@](=O)(OC[C@]1(CO)C/C1=C/n1cnc2c(=O)[nH]c(N)nc21)Oc1ccc(Br)cc1 (single isomer, unassigned) [Intermediate I-19 d2] | 96.86 | 94.32 | 88.76 | 73.76 |  |  |  | 
